# Values quoted from earlier work in patent publication US20200315965A1, “NANOEMULSION CONCENTRATE FORMULATIONS AND METHODS” (priority 2019, published 2020).
# Settings: water
structure (smiles),measurement,value
"CCCCCc1cc(O)c2c(c1)OC(C)(C)[C@@H]1CCC(C)=C[C@@H]21 [THC, tetrahydrocannabinol]",aqueous solubility,~0.003 milligrams per milliliter
